From patent US9981043B2, “Analgesic conjugates” (priority 2013, dated 2018)
“Also recorded” adds a separate entry of the source.

Key:
Type in all cases: in vivo
live mice = test: Respiratory depression (Mouse Ox O2 saturation); settings: for % of mice with O2 Saturation less than 90%: i.t., LPS
Protocol: Respiratory depression was measured in live mice using the Mouse Ox (small animal Oximeter from STARR Life Sciences Corp, Oakmont, Pa.). CollarClip™—(Un-Anesthetized Neck Sensor) for mice was used as the site for measuring the data. Day one of each experiment involved training the animals using a disposable CollarClip™. The collar was left on for approximately one hour. […] Mice were monitored for a 60-minute period, with measurements 10-20-30 and 60 minutes.
Respiratory depression was measured in live mice using the Mouse Ox (small animal Oximeter from STARR Life Sciences Corp, Oakmont, Pa.). CollarClip™ (Un-Anesthetized Neck Sensor) for mice was used as the site for measuring the data.
Day one of each experiment involved training the animals using a disposable CollarClip™. The collar was left on for approximately one hour.
Mice were monitored for a 60-minute period, with measurements 10-20-30 and 60 minutes.

control mice [1] = test: Acute (24 hour) tolerance, tail flick, control mice; settings: controls
Protocol: (§1) Acute tolerance utilizing the radiant tail flick assay was measured by comparing the ED80-90 dose on day 1 to the same dose measured 24 hours later on the same mouse. For the LPS pretreated mice, no additional LPS was given to the mice for the acute tolerance test. […] However, the effect was less robust 72 hours after the initial LPS injection. Thus confirming that the acute tolerance test was accurate for the LPS pretreated mice.

control mice [2] = test: Radiant tail flick antinociception, control (not pretreated) mice
Protocol: Compounds were dissolved in 10% DMSO and then diluted to less than 1% DMSO in the test solutions. […] Compounds were administered in a 5-μl volume in conscious mice, either i.c.v. (Haley T J & McCormick W G, Br J Pharmacol Chemother, 1957, 12(1), 12-15) or i.t. (Hylden J L K & Wilcox G L, Eur. J. Pharmacol., 1980, 67(2-3), 313-316). Peak times were determined by comparing the percent maximal possible effect (% MPE) at 5, 10, 20 and 60 minutes after injection.
The tail flick assay is used first to test for antinociception as described by D'Amour and Smith (D'AMOUR FE & SMITH DL (1941) J. Pharmacol. Exp. Ther. 72(1):74-79) and modified by Dewey et al. (Dewey W L, Harris L S, Howes J F, & Nuite JA (1970) J. Pharmacol. Exp. Ther. 175(2):435-442). For the measurement of the tail-flick latency, mice are wrapped in a light cloth and held gently in one hand with the tail positioned in the apparatus (Tail Flick Analgesia Meter, Columbus Instruments, Columbus, Ohio) for radiant heat stimulus. The tail-flick response is elicited by applying radiant heat to the dorsal side of the tail. The intensity of the heat is set so that the mouse flicks its tail within 2 to 3 seconds. The test latency is measured before drug treatment (control) and again after the drug treatment (test) at the peak time of the compound; a 10 second maximum cut-off time is used to prevent damage to the tail. Antinociception is quantified according to the Harris L S & Pierson A K, J. Pharmacol. Exp. Ther., 1964, 143(2):141-148, as the percent maximal possible effect (% MPE), which is calculated as: % MPE=(Test−Control/10−Control)×100.
At least three groups of four to ten mice are used for each dose response curve. ED50 values with 95% confidence intervals (C.I.) are computed with GraphPad Prism 4 by using nonlinear regression methods.

LPS pretreated mice = test: Acute (24 hour) tolerance, tail flick, LPS pretreated mice; settings: for Tolerance: 24 hours
Protocol: as §1

mice = test: Rota-Rod motor performance, CFA injected mice; settings: i.t., after the 48 hour measurement post CFA
Protocol: To first evaluate the effects of CFA injection on motor coordination, a group of 10 animals were tested on the Rotamex (Columbus Instruments Rotamex 4/8 instrument) for performance. Animals were trained three days prior to undergoing 3-5 minute trials on an accelerating rotating rod (0-20 RPMs). Motor performance was evaluated at 2, 4, 6, 24 and 48 hours post injection. Compound 4c was then injected i.t. and the motor performance was evaluated at 5 and 20 minutes. The time to the first fall were recorded and compared with controls (Kovacs K J, et al., Pain, 2008, 136, 75-84). The results for compound 4c are illustrated in FIG. 10.

Structure (SMILES): Cc1cccc(C#Cc2cccc(OCCNC(=O)COCC(=O)NCCCCCNC(=O)COCC(=O)N[C@H]3CC[C@@]4(O)C5Cc6ccc(O)c7c6[C@@]4(CCN5C)[C@H]3O7)c2)n1 [Compound 4c, N-((4aS,7S,7aR,12bS)-4a,9-dihydroxy-3-methyl-2,3,4,4a,5,6,7,7a-octahydro-1H-4,12-methanobenzofuro[3,2-e]isoquinolin-7-yl)-2-((1-(3-((6-methylpyridin-2-yl)ethynyl)phenoxy)-4,8,16-trioxo-6-oxa-3,9,15-triazaheptadecan-17-yl)oxy)acetamide]
- safety margin (live mice; compared with morphine): greater safety margin than morphine
- therapeutic index (live mice; estimated): greater than a million
- % of mice with O2 Saturation less than 90% (live mice; dose 50,000 times the ED90): 0%
- % of mice with O2 Saturation less than 90% (live mice; dose 100,000 times the ED90): 100%
- respiratory depression (live mice; mouse, in vivo): no tolerance or respiratory depression
- Tolerance (control mice [1]; i.c.v.): No Tolerance
- Tolerance (control mice [1]; i.t.): No Tolerance
- agonist character (control mice [2]; control mice, i.c.v.): partial agonist
- % MPE (control mice [2]; controls, i.c.v., 250 pmol/mouse): 71 ± 10% MPE
- ED50 (CI) i.t. (control mice [2]; controls, i.t., tail flick): 38.70 pmol/mouse
- % MPE remaining in 24 hour tolerance test (LPS pretreated mice; i.c.v., 24 hour): Still was 40% MPE
- Tolerance (LPS pretreated mice; i.c.v.): 24 hour tolerance
- Tolerance (LPS pretreated mice; i.t.): without tolerance; also recorded: No Tolerance
- time on the Rotamex (time to first fall) (mice): stayed on the Rotomex for a longer period of time
